For this assay, the target named is T1, PTPMT1 (Protein Tyrosine Phosphatase localized to the Mitochondrion 1) (Homo sapiens, UniProt Q8WUK0).
T1 construct: human PTPMT1 open reading frame cloned into pGEX-KG, purified using glutathione-conjugated sepharose
T1 sequence (Q8WUK0 1-201): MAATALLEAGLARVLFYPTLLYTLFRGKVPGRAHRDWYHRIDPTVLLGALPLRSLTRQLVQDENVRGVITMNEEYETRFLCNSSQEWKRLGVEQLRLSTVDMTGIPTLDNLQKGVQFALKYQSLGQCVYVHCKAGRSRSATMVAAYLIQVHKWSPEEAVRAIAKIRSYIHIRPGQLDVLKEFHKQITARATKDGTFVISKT
Nature of the assay: in vitro phosphatase assay with recombinant enzyme, OMFP substrate, fluorescence readout. It is filed as biochemical.

Counter-ions that a name gives are not always drawn.

The term IC50 denotes the concentration needed to halve the response being measured.

`CCCCC(CC)CNC(=N)NC(=N)NCCCCCCNC(=N)NC(=N)NCC(CC)CCCC` (stereo not shown) [alexidine dihydrochloride]: the IC50 worked out at 2.5 µM.

(Values after paper PMC3542197, “Downregulation of the Mitochondrial Phosphatase PTPMT1 Is Sufficient to Promote Cancer Cell Death” (PLoS ONE, 2013).)
